Results taken from patent publication US20160067232A1, “METHODS FOR TREATING A STROKE-RELATED SENSORIMOTOR IMPAIRMENT USING AMINOPYRIDINES” (Acorda Therapeutics, Inc., priority 2011, published 2016).
“And” between values parts separate entries of the source, which are not always exact repeats. Identical values can stand only once.

Tests used:
[1] = tested on: rats with middle cerebral artery occlusion (MCAO); assay: Cylinder test, total movement, MCAO rats (Example 2); assay type: in vivo, Sprague Dawley rat; conditions: individual animals and Mean (N=15), listed as 4-AP
Description: Dosing and Treatment: Rats were treated in accordance with the dosing schedule shown in Tables 2A, 2B, 3 and FIG. 2, with each Phase being a two week period of time. A solution of 4-AP was used in this experiment. Dosing was started at 4 weeks after ischemic event. 4-aminopyridine was dissolved in water for injection (WFI, Cellgro) and sterile filtered. […] Vehicle control treatment was WFI delivered at 2 mL/kg by gastric gavage. […] Starting on day 30 after MCAO (Day 30, start of phase 1), the animals received gavage dosing of solutions (2 mL/kg) approximately 12 hours apart, for a total of five doses. The same schedule was repeated with different treatment on Day 44 and Day 58 for phase 2 and 3 of the study, respectively. Animals were not treated during the 10 days between phases (washout period). Treatment groups: Dosing was started 4 weeks after MCAO surgery. During these 4 weeks, weekly behavioral assessments, as defined below, were performed. Two dose levels of 4-AP plus vehicle control were assessed, with treatment starting at 4 weeks after ischemic event. […] Animals were given the first dose and behavioral assessments were performed starting 60 minutes after dosing. Animals then received the second dose that day at the appropriate time and b.i.d (preferably every 12 hours) thereafter for 2 more days (3 total days of dosing, 5 total doses). One hour after the 5th dose, animals were subjected to behavioral assessments as defined below. Following the final behavioral assessment, drug was withdrawn for 10 or 11 days, behavior was re-assessed, and then animals were re-challenged with a cross-over treatment (Phase 2 of Table 2B) as described in Tables 2A, 2B and 3, followed by the same behavioral testing and dosing regimen. This cross-over was repeated one more time as well (Phase 3 of Table 2B) (see FIG. 2). Cylinder Test: Evaluation was performed at Day −1 (pre-operation), Day 7, Day 21, Day 30, Day 32, Day 44, Day 46, Day 58, Day 60. This test assessed limb use asymmetry. Rats were placed in a transparent cylinder (20 cm in diameter and 30 cm in height) for 3-6 minutes. A mirror was placed behind the cylinder to determine forelimb movements when animal was turned away from the camera. […] Simultaneous use of both left and right forelimbs while contacting the wall during a full rear was also scored. A total number of 20 forelimb placings were counted during a trial. Data was expressed in terms of percent use of the non-impaired and or impaired forelimb relative to the total number of limb use observations for wall movements.

[2] = typical; also printed as 94 ng/mL^−1; cited from earlier work
[3] = human subjects; Donovan et al., Spinal Cord 2000; cited from earlier work
[4] = Body weight (g) of MCAO rats (Example 2); conditions: individual animals and Mean (N=15), listed as 4-AP
[5] = Group 1, D30, treatment phase 1 (high-dose 4-AP)
[6] = Group 1, D32, treatment phase 1 (high-dose 4-AP)
[7] = Group 1, D44, treatment phase 2 (low-dose 4-AP)
[8] = Group 1, D46, treatment phase 2 (low-dose 4-AP)

## Nc1ccncc1 [4-aminopyridine]
[1]; [5]
  Cylinder Test (Total Movement) Group 1, D30: 0.00 (5×) and 75.00 and 2.00 and 10.00 (2×) and 6.00 and 13.00 and 12.00 and 4.00 and 5.00 (2×)
[1]; [6]
  Cylinder Test (Total Movement) Group 1, D32: 11.00 and 54.00 and 22.00 and 39.00 and 10.00 and 8.00 and 14.00 and 15.00 and 0.00 (2×) and 38.00 and 2.00 and 1.00 and 6.00 and 23.00
[1]; [7]
  Cylinder Test (Total Movement) Group 1, D44: 28.00 and 93.00 and 48.00 and 57.00 and 47.00 and 9.00 and 11.00 and 5.00 and 66.00 and 25.00 and 6.00 and 43.00 and 20.00 and 7.00
[1]; [8]
  Cylinder Test (Total Movement) Group 1, D46: 11.00 and 47.00 and 43.00 and 48.00 and 46.00 and 12.00 and 63.00 and 4.00 and 0.00 (2×) and 13.00 and 2.00 and 6.00 and 39.00 and 24.00
[2]
  4-AP plasma concentrations obtained in clinical studies: < 1 µM
[3]
  delay in the peak concentration in cerebrospinal fluid compared to that in the blood: approximately an hour
[4]; [5]
  Weight (g) Group 1, D30: 425 g (2×) and 450 g and 435 g and 490 g and 544 g and 470 g and 512 g and 434 g and 482 g and 480 g and 360 g and 422 g and 496 g and 372 g
[4]; [6]
  Weight (g) Group 1, D32: 411 g and 441 g and 417 g and 470 g and 515 g and 454 g and 496 g and 422 g and 453 g and 461 g and 351 g and 404 g and 412 g and 477 g and 360 g
[4]; [7]
  Weight (g) Group 1, D44: 455 g and 501 g and 447 g and 511 g and 566 g and 480 g and 545 g and 454 g and 502 g (2×) and 400 g and 440 g and 456 g and 494 g and 390 g
[4]; [8]
  Weight (g) Group 1, D46: 448 g and 490 g (2×) and 440 g and 494 g (2×) and 570 g and 488 g and 552 g and 457 g and 491 g and 386 g and 442 g and 446 g and 379 g
[4]; Group 2, D30, treatment phase 1 (low-dose 4-AP)
  Weight (g) Group 2, D30: 474 g and 380 g (2×) and 414 g and 444 g and 410 g and 480 g (2×) and 540 g and 475 g and 512 g and 434 g and 420 g and 416 g and 431 g
[4]; Group 2, D32, treatment phase 1 (low-dose 4-AP)
  Weight (g) Group 2, D32: 473 g and 369 g and 410 g and 426 g and 406 g and 455 g and 541 g and 467 g and 508 g and 476 g and 424 g and 403 g and 412 g and 374 g and 428 g
[4]; Group 2, D58, treatment phase 3 (high-dose 4-AP)
  Weight (g) Group 2, D58: 530 g and 425 g and 461 g and 477 g and 455 g and 540 g and 635 g and 535 g and 570 g and 546 g and 499 g and 456 g and 470 g and 432 g and 483 g
[4]; Group 2, D60, treatment phase 3 (high-dose 4-AP)
  Weight (g) Group 2, D60: 517 g and 410 g and 444 g (2×) and 460 g and 441 g and 519 g and 614 g and 508 g and 535 g and 530 g and 488 g and 447 g and 417 g and 471 g
[4]; Group 3, D44, treatment phase 2 (high-dose 4-AP)
  Weight (g) Group 3, D44: 460 g and 461 g and 469 g and 451 g and 423 g and 462 g and 463 g (2×) and 532 g and 572 g and 538 g and 442 g and 445 g (2×) and 453 g
[4]; Group 3, D46, treatment phase 2 (high-dose 4-AP)
  Weight (g) Group 3, D46: 440 g and 436 g (2×) and 455 g and 435 g (2×) and 402 g and 442 g and 502 g and 567 g and 497 g and 446 g and 430 g (2×) and 412 g
[4]; Group 3, D58, treatment phase 3 (low-dose 4-AP)
  Weight (g) Group 3, D58: 475 g and 486 g and 485 g and 467 g and 440 g and 472 g and 490 g and 550 g and 625 g and 573 g and 492 g and 462 g and 469 g and 476 g and 461 g
[4]; Group 3, D60, treatment phase 3 (low-dose 4-AP)
  Weight (g) Group 3, D60: 466 g and 479 g and 484 g (2×) and 463 g and 430 g and 465 g and 550 g and 613 g and 549 g and 468 g and 453 g and 456 g and 470 g and 447 g
